Measurements taken from US8853258B2, “C-linked hydroxamic acid derivatives useful as antibacterial agents” (Pfizer Inc., priority 2009, dated 2014).
Values after ≈ are worked out from the molar mass of the structure shown. Read-outs that look alike come from different tables or passages of the source.

Tests used:
Assay type in all cases: cell-based
[1] = tested on: Acinetobacter baumanii/haemolyticus: Multidrug-resistant clinical isolate (AB-3167); assay: MIC determination (CLSI), AB-3167; conditions: for MIC: Acinetobacter baumannii
Description: (§1) The in vitro antibacterial activity of compounds described in the Examples was evaluated by minimum inhibitory concentration (MIC) testing according to Clinical and Laboratory Standards Institute (CLSI, formerly NCCLS) guidelines. See: Clinical and Laboratory Standards Institute. Methods for Dilution Antimicrobial Susceptibility Tests for Bacteria that Grow Aerobically; Approved Standard-Seventh Edition. CLSI document M7-A7 [ISBN 1-56238-587-9]. Clinical and Laboratory Standards Institute, 940 West Valley Road, Suite 1400, Wayne, Pa. 19087-1898 USA, 2006; also Clinical and Laboratory Standards Institute. Performance Standards for Antimicrobial Susceptibility Testing; Eighteenth Informational Supplement. CLSI document M100-S18 [ISBN1-56238-653-0]. Clinical and Laboratory Standards Institute.
(§2) The following bacterial strains were used in these MIC determinations:
2) Acinetobacter baumanii/haemolyticus: Multidrug-resistant clinical isolate labeled as AB-3167 in Tables 1, 2 and 3;

[2] = tested on: Escherichia coli EC-1: VOGEL, mouse virulent; assay: MIC determination (CLSI), EC-1; conditions: for MIC: Escherichia coli
Description: as §1, §2
3) Escherichia coli EC-1: VOGEL, mouse virulent labeled as EC-1 in Tables 1, 2 and 3;

[3] = tested on: Klebsiella pneumoniae: Ciprofloxacin-resistant isolate, ESBL, clinical isolate (KP-3700); assay: MIC determination (CLSI), KP-3700
Description: as §1, §2
4) Klebsiella pneumoniae: Ciprofloxacin-resistant isolate, expresses extended-spectrum beta-lactamases (ESBL), clinical isolate, labeled as KP-3700 in Tables 1, 2, and 3.

[4] = tested on: Pseudomonas aeruginosa UI-18: Wild-type (PA-7); assay: MIC determination (CLSI), PA-7; conditions: for MIC: Pseudomonas aeruginosa
Description: as §1, §2
1) Pseudomonas aeruginosa UI-18: Wild-type, labeled as PA-7 in Tables 1, 2 and 3;

[5] = Table 1, MIC, read-out: AB-3167 (MIC)
[6] = Table 1, MIC, read-out: PA-7 (MIC)
[7] = Acinetobacter baumanii/haemolyticus multidrug-resistant clinical isolate AB-3167
[8] = Escherichia coli EC-1 VOGEL, mouse virulent
[9] = Pseudomonas aeruginosa UI-18 wild-type PA-7

| Structure (SMILES) | KP-3700 MIC [3] | AB-3167 MIC [1, 7] | EC-1 MIC [2, 8] | PA-7 MIC [4, 9] [µg/mL] | also measured |
| --- | --- | --- | --- | --- | --- |
| CC(CCc1ccc(OCCC2CC2)cc1)(C(=O)NO)S(C)(=O)=O (racemic) [Example 17, (+/−)-4-[4-(2-Cyclopropylethoxy)phenyl]-N-hydroxy-2-methyl-2-(methylsulfonyl)butanamide] | ≧64 mg/L |  |  |  | MIC [1, 5]: 32 µg/mL (≈ 90 µM); MIC ([2]; read-out: EC-1: (MIC)): 32 µg/mL (≈ 90 µM); MIC [4, 6]: 8 µg/mL (≈ 22.5 µM) |
| CCOc1ccc(CCC(C)(C(=O)NO)S(C)(=O)=O)cc1 (centres unmarked) [Example 235, 4-(4-ethoxyphenyl)-N-hydroxy-2-methyl-2-(methylsulfonyl)butanamide] | ≧64 mg/L |  |  |  | MIC ([1]; Table 3, read-out: AB-3167 MIC): ≥ 64 µg/mL; MIC ([2]; read-out: EC-1 MIC): 32 µg/mL (≈ 101 µM); MIC ([4]; Table 3, read-out: PA-7 MIC): 16 µg/mL (≈ 50.7 µM) |
| CSc1ccc(-c2ccc(CCC(C)(C(=O)NO)S(C)(=O)=O)cc2)cc1 (centres unmarked) [Example 40] | 2 µg/mL | 16 µg/mL | 0.5 µg/mL | 2 |  |
| CC(CCc1ccc(-c2cc(Cl)ccc2F)cc1)(C(=O)NO)S(C)(=O)=O (racemic) [Example 90] | 8 µg/mL | 8 µg/mL | 8 µg/mL | 8 |  |
| CC(C)(O)c1ccccc1-c1ccc(CCC(C)(C(=O)NO)S(C)(=O)=O)cc1 (centres unmarked) [Example 153] | ≧64 mg/L | ≧64 mg/L | ≧64 mg/L | 32 |  |
| CC(CCc1ccc(-c2ccco2)cc1)(C(=O)NO)S(C)(=O)=O (centres unmarked) [Example 103] | 16 µg/mL | 32 µg/mL | 8 µg/mL | 4 |  |
| CC(CCc1ccc(OCC2CCC2)cc1)(C(=O)NO)S(C)(=O)=O (centres unmarked) [Example 266, 4-[4-(cyclobutylmethoxy)phenyl]-N-hydroxy-2-methyl-2-(methylsulfonyl)butanamide] | ≧64 mg/L |  |  |  | MIC ([1]; Table 3, read-out: AB-3167 MIC): 32 µg/mL (≈ 90 µM); MIC ([2]; read-out: EC-1 MIC): 32 µg/mL (≈ 90 µM); MIC ([4]; Table 3, read-out: PA-7 MIC): 16 µg/mL (≈ 45 µM) |
| COc1ccccc1-c1ccc(CCC(C)(C(=O)NO)S(C)(=O)=O)cc1 (centres unmarked) [Example 100] | ≧64 mg/L | ≧64 mg/L | 32 µg/mL | 8 |  |
| COc1cc(CCC(C)(C(=O)NO)S(C)(=O)=O)ccc1-c1ccc(F)cc1 (centres unmarked) [Example 20, 4-(4′-Fluoro-2-methoxybiphenyl-4-yl)-N-hydroxy-2-methyl-2-(methylsulfonyl)butanamide] | 8 µg/mL |  |  |  | MIC [1, 5]: ≥ 64 µg/mL; MIC ([2]; read-out: EC-1: (MIC)): 1 µg/mL (≈ 2.53 µM); MIC [4, 6]: 16 µg/mL (≈ 40.5 µM) |
| COC(C)c1ccc(-c2ccc(CCC(C)(C(=O)NO)S(C)(=O)=O)cc2)cc1 (mixture of isomers) [Example 71] | 16 µg/mL | 32 µg/mL | 4 µg/mL | 4 |  |
| CC(CCc1ccc(-c2cc(C(F)(F)F)c(C#N)cn2)cc1)(C(=O)NO)S(C)(=O)=O (centres unmarked) [Example 124] | ≧64 mg/L | ≧64 mg/L | 8 µg/mL | 8 |  |
| CC(CCc1ccc(-c2ccc(F)cc2)nc1)(C(=O)NO)S(C)(=O)=O (centres unmarked) [Example 119] | ≧64 mg/L | ≧64 mg/L | 16 µg/mL | 8 |  |
| C[C@@](CCc1ccc(-c2cc3ccccc3o2)cc1)(C(=O)NO)S(C)(=O)=O [Example 214] | 4 µg/mL |  |  |  | AB-3167 MIC ([1]; Acinetobacter baumanii/haemolyticus AB-3167): 8 µg/mL; EC-1 MIC ([2]; Escherichia coli EC-1): 0.125 µg/mL; PA-7 MIC ([4]; Pseudomonas aeruginosa UI-18 (PA-7)): 8 µg/mL |
| CC(CCc1ccc(OCc2ccc3ccccc3n2)cc1)(C(=O)NO)S(C)(=O)=O (centres unmarked) [Example 279, N-hydroxy-2-methyl-2-(methylsulfonyl)-4-[4-(quinolin-2-ylmethoxy)phenyl]butanamide] | ≧64 mg/L |  |  |  | MIC ([1]; Table 3, read-out: AB-3167 MIC): ≥ 64 µg/mL; MIC ([2]; read-out: EC-1 MIC): 16 µg/mL (≈ 37.3 µM); MIC ([4]; Table 3, read-out: PA-7 MIC): ≥ 64 µg/mL |
| CC(CCc1ccc(OCCCc2ccccc2)cc1)(C(=O)NO)S(C)(=O)=O (centres unmarked) [Example 264, N-hydroxy-2-methyl-2-(methylsulfonyl)-4-[4-(3-phenylpropoxy)phenyl]butanamide] | 16 µg/mL |  |  |  | MIC ([1]; Table 3, read-out: AB-3167 MIC): 8 µg/mL (≈ 19.7 µM); MIC ([2]; read-out: EC-1 MIC): 4 µg/mL (≈ 9.86 µM); MIC ([4]; Table 3, read-out: PA-7 MIC): 32 µg/mL (≈ 78.9 µM) |
| CC(CCc1ccc(OCCOc2ccccc2)cc1)(C(=O)NO)S(C)(=O)=O (centres unmarked) [Example 248, N-hydroxy-2-methyl-2-(methylsulfonyl)-4-[4-(2-phenoxyethoxy)phenyl]butanamide] | 8 µg/mL |  |  |  | MIC ([1]; Table 3, read-out: AB-3167 MIC): 32 µg/mL (≈ 78.5 µM); MIC ([2]; read-out: EC-1 MIC): 2 µg/mL (≈ 4.91 µM); MIC ([4]; Table 3, read-out: PA-7 MIC): 32 µg/mL (≈ 78.5 µM) |

| Structure (SMILES) | KP-3700 MIC [3] | AB-3167 MIC [1, 7] | EC-1 MIC [2, 8] | PA-7 MIC [4, 9] [µg/mL] | also measured |
| --- | --- | --- | --- | --- | --- |
| CC(CCc1ccc(-c2ccc(F)cc2F)cc1)(C(=O)NO)S(C)(=O)=O (racemic) [Example 53] | 4 µg/mL | 8 µg/mL | 1 µg/mL | 0.5 |  |
| CC(CCc1ccc(-c2ccc(CC#N)cc2)cc1)(C(=O)NO)S(C)(=O)=O (centres unmarked) [Example 106] | 8 µg/mL | ≧64 mg/L | 2 µg/mL | 1 |  |
| CC(CCc1ccc(OCc2ccc(F)cc2C(F)(F)F)cc1)(C(=O)NO)S(C)(=O)=O (centres unmarked) [Example 249, 4-(4-{[4-fluoro-2-(trifluoromethyl)benzyl]oxy}phenyl)-N-hydroxy-2-methyl-2-(methylsulfonyl)butanamide] | ≧64 mg/L |  |  |  | MIC ([1]; Table 3, read-out: AB-3167 MIC): 16 µg/mL (≈ 34.5 µM); MIC ([2]; read-out: EC-1 MIC): 16 µg/mL (≈ 34.5 µM); MIC ([4]; Table 3, read-out: PA-7 MIC): 16 µg/mL (≈ 34.5 µM) |
| CC(C)(O)Cc1ccc(-c2ccc(CCC(C)(C(=O)NO)S(C)(=O)=O)cc2)cc1 (centres unmarked) [Example 146] | 32 µg/mL | ≧64 mg/L | 8 µg/mL | 8 |  |
| CC(CCc1ccc(-c2ccccc2O)cc1)(C(=O)NO)S(C)(=O)=O (centres unmarked) [Example 8, N-Hydroxy-4-(2′-hydroxybiphenyl-4-yl)-2-methyl-2-(methylsulfonyl)butanamide] | ≧64 mg/L |  |  |  | MIC [1, 5]: ≥ 64 µg/mL; MIC ([2]; read-out: EC-1: (MIC)): ≥ 64 µg/mL; MIC [4, 6]: 8 µg/mL (≈ 22 µM) |
| C[C@@](CCc1ccc(-c2ccccc2)cc1)(C(=O)NO)S(C)(=O)=O [Example 7, (2R)-4-Biphenyl-4-yl-N-hydroxy-2-methyl-2-(methylsulfonyl)butanamide] | 2 µg/mL |  |  |  | MIC [1, 5]: 16 µg/mL (≈ 46.1 µM); MIC ([2]; read-out: EC-1: (MIC)): 0.5 µg/mL (≈ 1.44 µM); MIC [4, 6]: 0.5 µg/mL (≈ 1.44 µM) |
| Cc1cc(O)ccc1-c1ccc(CCC(C)(C(=O)NO)S(C)(=O)=O)cc1 (centres unmarked) [Example 140] | ≧64 mg/L | ≧64 mg/L | 32 µg/mL | 4 |  |
| CC(CCc1ccc(-c2ccc(C#N)cc2)cn1)(C(=O)NO)S(C)(=O)=O (centres unmarked) [Example 163] | 32 µg/mL | ≧64 mg/L | 32 µg/mL | 8 |  |
| CC(CCc1ccc(-c2ccc(OCCO)c(F)c2)cc1)(C(=O)NO)S(C)(=O)=O (centres unmarked) [Example 145] | 4 µg/mL | ≧64 mg/L | 2 µg/mL | 1 |  |
| Cc1ccc(-c2ccc(CCC(C)(C(=O)NO)S(C)(=O)=O)cc2)o1 (centres unmarked) [Example 99] | 32 µg/mL | ≧64 mg/L | 16 µg/mL | 8 |  |
| CC(CCc1ccc(OCc2cccc(F)c2)cc1)(C(=O)NO)S(C)(=O)=O (centres unmarked) [Example 268, 4-{4-[(3-fluorobenzyl)oxy]phenyl}-N-hydroxy-2-methyl-2-(methylsulfonyl)butanamide] | 8 µg/mL |  |  |  | MIC ([1]; Table 3, read-out: AB-3167 MIC): 16 µg/mL (≈ 40.5 µM); MIC ([2]; read-out: EC-1 MIC): 2 µg/mL (≈ 5.06 µM); MIC ([4]; Table 3, read-out: PA-7 MIC): 8 µg/mL (≈ 20.2 µM) |
| Cc1ccc(COc2ccc(CCC(C)(C(=O)NO)S(C)(=O)=O)cc2)cn1 (centres unmarked) [Example 270, N-hydroxy-2-methyl-4-{4-[(6-methylpyridin-3-yl)methoxy]phenyl}-2-(methylsulfonyl)butanamide] | ≧64 mg/L |  |  |  | MIC ([1]; Table 3, read-out: AB-3167 MIC): ≥ 64 µg/mL; MIC ([2]; read-out: EC-1 MIC): ≥ 64 µg/mL; MIC ([4]; Table 3, read-out: PA-7 MIC): 32 µg/mL (≈ 81.5 µM) |
| CC(CCc1ccc(Oc2ccccc2)cc1)(C(=O)NO)S(C)(=O)=O (centres unmarked) [Example 10, N-Hydroxy-2-methyl-2-(methylsulfonyl)-4-(4-phenoxyphenyl)butanamide] | 32 µg/mL |  |  |  | MIC [1, 5]: 32 µg/mL (≈ 88 µM); MIC ([2]; read-out: EC-1: (MIC)): 16 µg/mL (≈ 44 µM); MIC [4, 6]: 8 µg/mL (≈ 22 µM) |
| CC(CCc1ccc(-c2cccc(O)c2F)cc1)(C(=O)NO)S(C)(=O)=O (centres unmarked) [Example 154] |  | ≧64 mg/L | 4 µg/mL | 1 | KP-3700 MIC ([3]; Klebsiella pneumoniae ciprofloxacin-resistant ESBL clinical isolate KP-3700): 8 µg/mL |
| CCC(CC)COc1ccc(CCC(C)(C(=O)NO)S(C)(=O)=O)cc1 (centres unmarked) [Example 239, 4-[4-(2-ethylbutoxy)phenyl]-N-hydroxy-2-methyl-2-(methylsulfonyl)butanamide] | ≧64 mg/L |  |  |  | MIC ([1]; Table 3, read-out: AB-3167 MIC): 4 µg/mL (≈ 10.8 µM); MIC ([2]; read-out: EC-1 MIC): 16 µg/mL (≈ 43.1 µM); MIC ([4]; Table 3, read-out: PA-7 MIC): 8 µg/mL (≈ 21.5 µM) |
| CC(CCc1ccc(-c2ccc(OCCO)c(C#N)c2)cc1)(C(=O)NO)S(C)(=O)=O (centres unmarked) [Example 148] | ≧64 mg/L | ≧64 mg/L | 16 µg/mL | 16 |  |
